Source: BigSolDB 2.1

Cc1ncc(COP(=O)(O)O)c(C=O)c1O.O
solubility (mole fraction)
Conditions | 278.15 K | 283.15 K | 288.15 K | 293.15 K | 298.15 K | 303.15 K | 308.15 K | 313.15 K | 318.15 K
in acetone | 4.8e-07 | 6.8e-07 | 8.7e-07 | 1.26e-06 | 1.74e-06 | 2.42e-06 | 3.19e-06 | 4.06e-06 | 5.02e-06
in ethanol | 2.81e-06 | 3.12e-06 | 3.5e-06 | 3.95e-06 | 4.18e-06 | 4.86e-06 | 6e-06 | 7.22e-06 | 8.59e-06
in isopropanol | 2.35e-06 | 2.45e-06 | 2.77e-06 | 3.2e-06 | 3.73e-06 | 4.59e-06 | 5.66e-06 | 7.04e-06 | 9.17e-06
in methanol | 4.5e-06 | 5.92e-06 | 8.99e-06 | 1.33e-05 | 1.83e-05 | 2.39e-05 | 3.18e-05 | 4.17e-05 | 5.38e-05
in water | 0.000216 | 0.000247 | 0.000284 | 0.000333 | 0.000388 | 0.000465 | 0.000558 | 0.00066 | 0.000803
